In ChEMBL document CHEMBL1132732, “HINT predictive analysis of binding between retinol binding protein and hydrophobic ligands” (Bioorg Med Chem Lett, 2000) one finds logP and Kd data, which are given here for four molecules.

A short description of data set [1]: Partition coefficient (logP). The format is physicochemical. The settings on record: octanol/water.
Data set [2] in a line: Dissociation constant with retinol binding protein was determined.

`C/C=C(C)/C=C/C=C(C)/C=C/C1=C(C)CCCC1(C)C` had a logP in data set [1] of 8.15.

`CC1=C(/C=C/C(C)=C/C=C/C(C)=C/C(=O)Nc2ccc(O)cc2)C(C)(C)CCC1` [FENRETINIDE] returned a Kd in data set [2] of 170 nM.

Take `CCNC(=O)/C=C(C)/C=C/C=C(C)/C=C/C1=C(C)CCCC1(C)C`: the Kd in data set [2] was 90 nM. The molecule further gave a logP in data set [1] of 6.31.

With `CC1=C(/C=C/C(C)=C/C=C/C(C)=C/CO)C(C)(C)CCC1` [RETINOL], the dissociation constant Kd in data set [2] stood at 70 nM. In data set [1], this molecule displayed a log partition coefficient (logP) of 6.16.
